Experiment [1] is described as follows: Cytotoxicity against human THP1-Dual KO-STING cells assessed as residual cell viability by CellTiter96 Aqueous One Solution Cell Proliferation Assay. Also on record: concentration or dose not given beside the values. It is filed as functional.
In a further experiment the test system is THP1-Dual. The experiment in a line: Cytotoxicity against human wild type THP1-Dual cells assessed as residual cell viability by CellTiter96 Aqueous One Solution Cell Proliferation Assay. It is filed as functional. Also on record: concentration or dose not given beside the values.
Experiment [2] is described as follows: Activation of IRF-mediated immune response in human THP1-Dual KO-STING cells co-expressing ISRE reporter assessed as normalized luciferase gene expression by measuring relative luciferase units at 50 uM incubated for 24 hrs by QUANTI Luc based microplate reader method. Type of experiment: functional.
Experiment [3] concerns the target Stimulator of interferon genes protein (Homo sapiens, UniProt Q86WV6). Particulars: THP1-Dual, filed as activator, dose 50.0 µM, time 24.0 hrs.

For 38 compounds, Activity and RLU results are on record in ChEMBL document CHEMBL5154810, “Development of Potent Immune Modulators Targeting Stimulator of Interferon Genes Receptor” (J Med Chem, 2022).

Sequence of Stimulator of interferon genes protein (Q86WV6 whole entry): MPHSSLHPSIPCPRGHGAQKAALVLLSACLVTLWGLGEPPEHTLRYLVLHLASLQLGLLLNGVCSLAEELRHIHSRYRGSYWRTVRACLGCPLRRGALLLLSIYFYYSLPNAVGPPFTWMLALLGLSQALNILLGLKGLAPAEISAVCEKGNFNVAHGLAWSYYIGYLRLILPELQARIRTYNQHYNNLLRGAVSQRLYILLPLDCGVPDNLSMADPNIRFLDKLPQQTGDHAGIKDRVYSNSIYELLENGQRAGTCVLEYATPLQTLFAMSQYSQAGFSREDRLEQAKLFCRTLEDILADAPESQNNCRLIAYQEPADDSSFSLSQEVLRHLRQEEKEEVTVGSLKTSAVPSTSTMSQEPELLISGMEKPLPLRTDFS

For `Cn1cc(C(=O)Nc2nc3cc(C(N)=O)ccc3n2C[C@@H](O)c2ccccc2)c(C(F)(F)F)n1`, the Activity is reported as 92.4% in experiment [1] and 89.4% in the experiment with THP1-Dual. The figures for the RLU in experiment [2] and in experiment [3] were 1.1 and 0.8, respectively.
In the case of `CCn1nc(C)cc1C(=O)Nc1nc2cc(C(N)=O)cc(OC)c2n1C/C=C/CNC(=O)OC(C)(C)C`, the Activity in experiment [1] is given as 87.7%; in the experiment on THP1-Dual, 89.5%. Moreover, the RLU worked out at 0.7 in experiment [2] and 13.7 in experiment [3].
The matching figures for `C=CCn1nc(C(=O)Nc2nc3cc(C(N)=O)ccc3n2CCCCn2c(NC(=O)c3cc(C)n(CC=C)n3)nc3cc(C(N)=O)ccc32)cc1C`: 108.3%, 108.6%, 0.9 and 0.8.
Take `CC(C)(C)OC(=O)NCCCCn1c(NC(=O)c2cc3ccccc3o2)nc2cc(C(N)=O)ccc21`: the Activity in experiment [1] was determined as 98%; in the experiment on THP1-Dual, 92.7%. The RLU in experiment [2] came to 0.7; in experiment [3], 0.8.
Consider `CCn1nc(C)cc1C(=O)Nc1nc2cc(C(N)=O)ccc2n1CCCCNC(=O)c1ccccc1`, for which the Activity is on record as 64.2% in experiment [1] and 27.4% in the experiment with THP1-Dual. Besides, the RLU in experiment [2] came to 0.2; in experiment [3] it was 7.
`CCn1nc(C)cc1C(=O)Nc1nc2cc(C(N)=O)cc(OCCCNC(=O)OC(C)(C)C)c2n1C`: the Activity in experiment [1] came out at 110%; in the experiment on THP1-Dual it was 80.1%. Further, the RLU turned out to be 0.8 in experiment [2] and 127 in experiment [3].
Taken in the same sequence, the figures for `CCn1nc(C)cc1C(=O)NCCCCCn1c(NC(=O)c2cc(C)nn2CC)nc2cc(C(N)=O)ccc21` were 77.5%, 44.9%, 0.3 and 1.
Taken in the same sequence, the figures for `NC(=O)c1ccc2c(c1)nc(NC(=O)c1n[nH]c3ccccc13)n2C[C@@H](O)c1ccccc1` were 100.9%, 91.2%, 1.3 and 0.9.
Turning to `CCn1nc(C)cc1C(=O)Nc1nc2cc(C(N)=O)cc(OC)c2n1CCCCNC(=O)OC(C)(C)C`, the Activity in experiment [1] came to 90%; in the experiment on THP1-Dual it was 72.1%. In addition, the figures for the RLU in experiment [2] and in experiment [3] were 0.5 and 2.7, respectively.
Turning to `Cn1cc(C(=O)Nc2nc3cc(C(N)=O)ccc3n2CCCCNC(=O)OC(C)(C)C)c(C(F)(F)F)n1`, the Activity in experiment [1] came out at 90.6%; in the experiment on THP1-Dual, 91.9%. The RLU amounted to 0.9 in experiment [2] and 0.8 in experiment [3].
Consider `CCn1nc(C(F)(F)F)cc1C(=O)Nc1nc2cc(C(N)=O)ccc2n1CCCCNC(=O)OC(C)(C)C`, for which the Activity in experiment [1] is on record as 89.9%; with THP1-Dual it was 99.4%. The RLU in experiment [2] is 1.1; in experiment [3], 0.8.
`Cc1cc(C(=O)Nc2nc3cc(C(N)=O)ccc3n2CCCCNC(=O)OC(C)(C)C)n(C(C)C)n1`: the figures for the Activity (in experiment [1]; with THP1-Dual) were 100.1% and 97.1%, respectively. Moreover, the RLU in experiment [2] is 0.8; in experiment [3], 0.9.
For `CCn1nc(C)cc1C(=O)Nc1nc2cc(C(N)=O)ccc2n1CCCCNC(C)=O`, the Activity is 74.9% in experiment [1] and 40.8% with THP1-Dual. The RLU in experiment [2] is 0.3; in experiment [3], 0.4.
Taken in the same sequence, the figures for `CCn1nc(C)cc1C(=O)NCCCOc1cc(C(N)=O)cc2nc(NC(=O)c3cc(C)nn3CC)n(C)c12` were 113%, 94%, 0.9 and 99.1.
For `Cn1cc(C(=O)Nc2nc3cc(C(N)=O)ccc3n2CCCCn2c(NC(=O)c3cn(C)nc3C(F)(F)F)nc3cc(C(N)=O)ccc32)c(C(F)(F)F)n1`, the values for the Activity (in experiment [1]; with THP1-Dual) were 115% and 96.7%, respectively. Moreover, the RLU was determined as 0.8 in experiment [2] and 7.7 in experiment [3].
The matching figures for `Cc1cc(C(=O)Nc2nc3cc(C(N)=O)ccc3n2CCCCNC(=O)OC(C)(C)C)n(C(C)(C)C)n1`: 82.7%, 83.5%, 1.2 and 1.1.
The matching figures for `CCn1nc(C)cc1C(=O)Nc1nc2cc(C(N)=O)ccc2n1CCCCN`: 85.5%, 95.2%, 1 and 0.8.
In the case of `CCn1nc(C)cc1C(=O)NCCCn1c(NC(=O)c2cc(C)nn2CC)nc2cc(C(N)=O)ccc21`, the values for the Activity (in experiment [1]; with THP1-Dual) were 82.3% and 40.6%, respectively. Further, the RLU worked out at 0.4 in experiment [2] and 13.7 in experiment [3].
Taken in the same sequence, the figures for `CCn1nc(C)cc1C(=O)Nc1nc2cc(C(N)=O)ccc2n1CCCCNC(=O)c1cccnc1` were 96.4%, 98.9%, 1.1 and 1.
As for `C=CCn1nc(C(=O)Nc2nc3cc(C(N)=O)ccc3n2CCCCNC(=O)OC(C)(C)C)cc1C`, the Activity worked out at 103.9% in experiment [1] and 96.1% in the experiment with THP1-Dual. For the same compound, the RLU in experiment [2] came out at 1.4; in experiment [3], 0.9.
As for `CCn1nc(C)cc1C(=O)Nc1nc2cc(C(N)=O)ccc2n1CCCCNC(=O)C(C)(C)C`, the results for the Activity (in experiment [1]; with THP1-Dual) were 58.6% and 103.7%, respectively. Further, the results for the RLU in experiment [2] and in experiment [3] were 0.4 and 4.8, respectively.
Regarding `NC(=O)c1ccc2c(c1)nc(NC(=O)c1cc3ccccc3o1)n2C[C@@H](O)c1ccccc1`, the Activity is reported as 105.5% in experiment [1] and 90.2% in the experiment with THP1-Dual. The RLU in experiment [2] and in experiment [3] was 0.8 in each case.
Consider `CCn1nc(C(F)(F)F)cc1C(=O)Nc1nc2cc(C(N)=O)ccc2n1C[C@@H](O)c1ccccc1`, for which the Activity came to 91% in experiment [1] and 88.1% in the experiment with THP1-Dual. For the same compound, the RLU was determined as 1 in experiment [2] and 0.7 in experiment [3].
The matching figures for `CCn1nc(C)cc1C(=O)Nc1nc2cc(C(N)=O)ccc2n1CCCCNC(=O)c1ccn[nH]1`: 109.2%, 99.9%, 1.3 and 0.9.
On to `CCn1nc(C)cc1C(=O)Nc1nc2cc(C(N)=O)ccc2n1CCCNC(=O)OC(C)(C)C`, for which the Activity is reported as 88% in experiment [1] and 90.2% in the experiment on THP1-Dual. In addition, the RLU in experiment [2] was determined as 0.9; in experiment [3] it was 20.
Taken in the same sequence, the figures for `CCn1nc(C)cc1C(=O)Nc1nc2cc(C(N)=O)ccc2n1CCCCCNC(=O)OC(C)(C)C` were 87%, 54.9%, 0.6 and 16.3.
Regarding `NC(=O)c1ccc2c(c1)nc(NC(=O)c1nn(C3CCCCO3)c3ccccc13)n2C[C@@H](O)c1ccccc1` (some centres not stated), the Activity in experiment [1] amounted to 93.4%; in the experiment with THP1-Dual it was 95.8%. Besides, the figures for the RLU in experiment [2] and in experiment [3] were 0.9 and 0.4, respectively.
Regarding `Nc1nc2c(ncn2[C@@H]2O[C@@H]3COP(=O)(O)O[C@H]4[C@@H](O)[C@H](n5cnc6c(N)ncnc65)O[C@@H]4COP(=O)(O)O[C@@H]2[C@@H]3O)c(=O)[nH]1`, the Activity in the experiment with THP1-Dual is on record as 76.5%.
With `CCn1nc(C)cc1C(=O)/N=c1\[nH]c2cc(C(N)=O)ccc2n1C[C@@H](O)c1ccccc1`, the Activity in experiment [1] came to 76.9%; in the experiment with THP1-Dual, 96%. Besides, the values for the RLU in experiment [2] and in experiment [3] were 0.7 and 2, respectively.
Consider `CCn1nc(C)cc1C(=O)Nc1nc2cc(C(N)=O)ccc2n1CCCCNC(=O)OC(C)(C)C`, for which the Activity in experiment [1] worked out at 78.4%; with THP1-Dual it was 97.6%. The values for the RLU in experiment [2] and in experiment [3] were 0.6 and 21, respectively.
The matching figures for `NC(=O)c1ccc2c(c1)nc(NC(=O)c1cc3ccccc3o1)n2CCCCn1c(NC(=O)c2cc3ccccc3o2)nc2cc(C(N)=O)ccc21`: 96.8%, 103%, 1.3 and 0.9.
`CCn1nc(C)cc1C(=O)Nc1nc2cc(C(=O)O)ccc2n1CCCCn1c(NC(=O)c2cc(C)nn2CC)nc2cc(C(=O)O)ccc21`: the figures for the Activity (in experiment [1]; in the experiment with THP1-Dual) were 101.6% and 113.1%, respectively. Besides, the RLU in experiment [2] and in experiment [3] was 0.6 each time.
For `CCn1nc(C)cc1C(=O)Nc1nc2cc(C(N)=O)cc(OCCCN)c2n1C`, the values for the Activity (in experiment [1]; in the experiment on THP1-Dual) were 110% and 88%, respectively. Further, the RLU in experiment [2] was found to be 1; in experiment [3], 101.
The matching figures for `CCn1nc(C)cc1C(=O)Nc1nc2cc(C(N)=O)ccc2n1CCCCNC(=O)c1cc(C)nn1C`: 105.4%, 66%, 0.9 and 93.3.
The matching figures for `NC(=O)c1ccc2c(c1)nc(NC(=O)c1ccoc1)n2C[C@@H](O)c1ccccc1`: 94%, 88%, 0.9 and 0.5.
Regarding `CCn1nc(C)cc1C(=O)Nc1nc2cc(C(N)=O)cc(OC)c2n1C/C=C/Cn1c(NC(=O)c2cc(C)nn2CC)nc2cc(C(N)=O)cc(OCCCN)c21`, the RLU in experiment [2] stood at 0.7; in experiment [3], 101.
As to `CC(C)(C)OC(=O)NCCCCn1c(NC(=O)c2ccoc2)nc2cc(C(N)=O)ccc21`, the Activity is 96.2% in experiment [1] and 90.3% in the experiment on THP1-Dual. Besides, the RLU was 1 in experiment [2] and 0.9 in experiment [3].
The matching figures for `Cc1cc(C(=O)Nc2nc3cc(C(N)=O)ccc3n2CCCCNC(=O)OC(C)(C)C)n(C)n1`: 108.2%, 96.7%, 1.2 and 0.9.
